The values below come from ChEMBL document CHEMBL1909046, “DrugMatrix in vitro pharmacology data”.

Series [1] concerns the target Melanocortin receptor 5 (Homo sapiens, UniProt P33032). It counts as cell membranes, HEK293, Membrane. The following applies: hek293.
The target in series [2] is Mitogen-activated protein kinase 14 (Homo sapiens, UniProt Q16539). On the set-up: species or system Escherichia coli.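 Also: inhibition of p38alpha enzyme activity in a biochemical kinase assay, with myelin basic protein serving as substrate.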
Series [3] addresses T1, Calcitonin receptor (Homo sapiens, UniProt P30988).
T1 sequence (P30988 whole entry): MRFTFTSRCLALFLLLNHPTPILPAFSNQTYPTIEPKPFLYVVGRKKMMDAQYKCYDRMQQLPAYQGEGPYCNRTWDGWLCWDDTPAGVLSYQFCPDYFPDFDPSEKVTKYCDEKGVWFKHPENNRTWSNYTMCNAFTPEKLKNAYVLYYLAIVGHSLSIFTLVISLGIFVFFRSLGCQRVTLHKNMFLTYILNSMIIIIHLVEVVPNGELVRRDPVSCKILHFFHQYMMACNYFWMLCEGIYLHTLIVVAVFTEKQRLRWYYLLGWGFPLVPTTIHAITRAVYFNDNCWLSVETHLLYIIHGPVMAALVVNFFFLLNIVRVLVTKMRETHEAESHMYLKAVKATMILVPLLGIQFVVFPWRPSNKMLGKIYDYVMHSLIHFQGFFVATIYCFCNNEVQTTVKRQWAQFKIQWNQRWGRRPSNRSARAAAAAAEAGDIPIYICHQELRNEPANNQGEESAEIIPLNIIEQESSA
The format is cell membranes, Membrane. The conditions noted are these: t47d.

The target in series [4] is T2, Receptor-type tyrosine-protein phosphatase C (Homo sapiens, UniProt P08575).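 Also: inhibition of CD45 enzyme activity measured using DiFMUP as substrate.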
T2 sequence (P08575 whole entry): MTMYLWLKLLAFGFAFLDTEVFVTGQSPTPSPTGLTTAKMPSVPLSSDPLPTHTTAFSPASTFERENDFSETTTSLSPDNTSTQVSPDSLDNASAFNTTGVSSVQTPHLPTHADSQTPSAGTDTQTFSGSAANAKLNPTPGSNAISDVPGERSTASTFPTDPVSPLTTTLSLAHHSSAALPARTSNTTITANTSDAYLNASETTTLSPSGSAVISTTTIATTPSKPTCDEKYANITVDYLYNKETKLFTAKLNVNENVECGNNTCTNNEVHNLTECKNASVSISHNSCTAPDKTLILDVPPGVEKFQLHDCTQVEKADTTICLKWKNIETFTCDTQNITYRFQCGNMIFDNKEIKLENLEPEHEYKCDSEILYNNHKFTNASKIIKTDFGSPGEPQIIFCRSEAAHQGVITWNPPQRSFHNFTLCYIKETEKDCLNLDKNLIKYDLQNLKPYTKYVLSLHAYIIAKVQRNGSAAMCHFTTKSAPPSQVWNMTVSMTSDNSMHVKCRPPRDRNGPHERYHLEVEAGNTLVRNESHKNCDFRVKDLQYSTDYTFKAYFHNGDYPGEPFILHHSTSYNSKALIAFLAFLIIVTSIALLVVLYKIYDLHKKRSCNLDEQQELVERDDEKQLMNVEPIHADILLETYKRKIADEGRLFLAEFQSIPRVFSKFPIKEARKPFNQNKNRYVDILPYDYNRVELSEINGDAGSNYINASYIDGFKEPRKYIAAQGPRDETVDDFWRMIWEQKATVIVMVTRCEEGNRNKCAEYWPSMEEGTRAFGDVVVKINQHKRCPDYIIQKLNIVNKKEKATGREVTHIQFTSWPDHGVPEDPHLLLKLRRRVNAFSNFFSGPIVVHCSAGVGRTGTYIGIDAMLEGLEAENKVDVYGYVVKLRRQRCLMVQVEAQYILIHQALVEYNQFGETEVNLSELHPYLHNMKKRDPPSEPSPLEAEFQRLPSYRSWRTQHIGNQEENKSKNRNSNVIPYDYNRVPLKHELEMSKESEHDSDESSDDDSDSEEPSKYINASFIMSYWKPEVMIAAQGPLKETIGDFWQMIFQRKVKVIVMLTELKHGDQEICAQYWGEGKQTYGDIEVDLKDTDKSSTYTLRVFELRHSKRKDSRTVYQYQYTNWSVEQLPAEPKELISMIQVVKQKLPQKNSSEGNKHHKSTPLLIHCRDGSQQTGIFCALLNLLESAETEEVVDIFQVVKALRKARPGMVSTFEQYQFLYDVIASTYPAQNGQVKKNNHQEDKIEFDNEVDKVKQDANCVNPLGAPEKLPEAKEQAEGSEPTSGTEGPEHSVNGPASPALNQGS
Details: species or system Escherichia coli.

In series [5] the target is Tyrosine-protein kinase Fyn (Homo sapiens, UniProt P06241). In words: biochemical. The format is cell-based, Insect cells. The following applies: insect cells.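 Also: enzymatic inhibition of Fyn kinase activity measured with Poly(Glu:Tyr) as the phosphorylation substrate.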
Series [6] deals with Voltage-gated inwardly rectifying potassium channel KCNH2 (Homo sapiens, UniProt Q12809). The following applies: hek293.
Also: in other assays of this panel Not Active means under 50% inhibition at 10 µM.

Melanocortin receptor 5, sequence (P33032 whole entry): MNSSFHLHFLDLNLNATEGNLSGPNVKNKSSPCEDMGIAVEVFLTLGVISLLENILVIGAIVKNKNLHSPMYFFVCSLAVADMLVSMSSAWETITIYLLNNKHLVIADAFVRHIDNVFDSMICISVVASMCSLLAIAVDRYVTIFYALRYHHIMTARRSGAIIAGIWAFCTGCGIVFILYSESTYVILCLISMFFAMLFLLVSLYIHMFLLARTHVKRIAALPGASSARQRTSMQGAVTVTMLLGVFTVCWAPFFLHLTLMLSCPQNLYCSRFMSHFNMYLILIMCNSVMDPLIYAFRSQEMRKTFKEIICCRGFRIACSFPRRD
Tyrosine-protein kinase Fyn, sequence (P06241 whole entry): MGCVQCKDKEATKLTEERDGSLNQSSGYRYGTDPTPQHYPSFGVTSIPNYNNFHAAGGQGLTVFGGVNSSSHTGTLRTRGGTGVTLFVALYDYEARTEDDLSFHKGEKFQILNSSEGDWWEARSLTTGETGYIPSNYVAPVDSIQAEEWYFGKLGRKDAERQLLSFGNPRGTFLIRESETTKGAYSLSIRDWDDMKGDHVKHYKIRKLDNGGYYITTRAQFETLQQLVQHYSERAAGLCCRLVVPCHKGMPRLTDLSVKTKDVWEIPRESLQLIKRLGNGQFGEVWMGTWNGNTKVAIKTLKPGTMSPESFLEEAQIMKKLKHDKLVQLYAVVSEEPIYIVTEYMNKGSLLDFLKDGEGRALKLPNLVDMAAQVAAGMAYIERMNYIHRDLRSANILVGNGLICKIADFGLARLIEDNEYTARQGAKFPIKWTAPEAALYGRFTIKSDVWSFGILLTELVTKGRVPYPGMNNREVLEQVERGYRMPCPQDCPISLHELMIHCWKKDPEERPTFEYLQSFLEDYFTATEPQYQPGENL
Voltage-gated inwardly rectifying potassium channel KCNH2, sequence (Q12809 whole entry): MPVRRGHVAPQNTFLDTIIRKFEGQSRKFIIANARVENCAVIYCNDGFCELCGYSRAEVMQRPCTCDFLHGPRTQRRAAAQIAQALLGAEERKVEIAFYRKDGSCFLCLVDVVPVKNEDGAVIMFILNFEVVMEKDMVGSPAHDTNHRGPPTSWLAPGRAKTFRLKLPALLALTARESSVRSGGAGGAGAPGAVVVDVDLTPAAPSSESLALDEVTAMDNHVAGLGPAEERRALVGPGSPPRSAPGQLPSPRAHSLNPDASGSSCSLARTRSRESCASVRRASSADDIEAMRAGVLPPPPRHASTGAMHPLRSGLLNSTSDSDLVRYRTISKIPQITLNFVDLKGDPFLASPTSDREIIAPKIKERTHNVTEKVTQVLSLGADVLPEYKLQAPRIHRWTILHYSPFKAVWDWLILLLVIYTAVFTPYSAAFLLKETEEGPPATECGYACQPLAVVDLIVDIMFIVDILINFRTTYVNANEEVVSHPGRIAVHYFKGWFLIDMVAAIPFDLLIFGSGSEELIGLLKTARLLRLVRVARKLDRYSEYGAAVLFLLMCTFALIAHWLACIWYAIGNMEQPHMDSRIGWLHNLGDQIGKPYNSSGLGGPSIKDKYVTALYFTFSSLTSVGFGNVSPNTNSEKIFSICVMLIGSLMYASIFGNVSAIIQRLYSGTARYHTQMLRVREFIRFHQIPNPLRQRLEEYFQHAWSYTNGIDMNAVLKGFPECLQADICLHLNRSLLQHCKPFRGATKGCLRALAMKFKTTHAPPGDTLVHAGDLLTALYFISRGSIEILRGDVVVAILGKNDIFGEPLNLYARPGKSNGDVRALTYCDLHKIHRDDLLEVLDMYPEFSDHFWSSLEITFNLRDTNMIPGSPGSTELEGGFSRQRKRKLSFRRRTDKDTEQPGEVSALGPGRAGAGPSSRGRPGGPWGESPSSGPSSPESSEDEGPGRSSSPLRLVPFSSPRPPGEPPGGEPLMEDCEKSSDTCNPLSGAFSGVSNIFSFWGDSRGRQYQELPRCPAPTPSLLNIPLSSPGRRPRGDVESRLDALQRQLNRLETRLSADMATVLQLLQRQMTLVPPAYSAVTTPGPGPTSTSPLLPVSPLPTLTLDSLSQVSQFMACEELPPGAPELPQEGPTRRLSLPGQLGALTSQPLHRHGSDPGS
Mitogen-activated protein kinase 14, sequence (Q16539 whole entry): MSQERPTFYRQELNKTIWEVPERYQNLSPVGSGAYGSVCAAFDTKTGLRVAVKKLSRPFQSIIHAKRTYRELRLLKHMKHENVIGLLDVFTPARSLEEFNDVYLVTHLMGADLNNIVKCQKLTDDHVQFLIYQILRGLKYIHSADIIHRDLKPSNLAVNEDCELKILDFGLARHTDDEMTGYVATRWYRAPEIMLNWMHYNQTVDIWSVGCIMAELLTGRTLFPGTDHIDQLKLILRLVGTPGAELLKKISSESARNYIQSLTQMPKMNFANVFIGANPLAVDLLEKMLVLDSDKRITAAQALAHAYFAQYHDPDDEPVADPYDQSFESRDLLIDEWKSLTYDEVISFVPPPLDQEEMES

Usually IC50 stands for the concentration that inhibits the measured activity by half. Regarding `O=C(c1ccccc1C(F)(F)F)N1CCC(Cc2ccccc2)CC1`, the IC50 entry in series [1] was “Not Active”; in series [2] (read-out: IC50) it was 715 nM; in series [3], “Not Active”; in series [4] it was “Not Active”; in series [5] it was “Not Active”; in series [6] it was “Not Active”. Besides, the Ki entry in series [6] was “Not Active”.

As for `O=C/C=C/c1ccccc1`, the IC50 entry in series [1], in series [2], in series [3], in series [4], in series [5] and in series [6] was “Not Active” throughout. In series [6], the Ki entry is listed as “Not Active”.

In the case of `Nc1ccc2c3c(cccc13)C(=O)NC2=O`, the IC50 entry in series [1], in series [2], in series [3], in series [4], in series [5] and in series [6] was “Not Active” in each case. Besides, the Ki entry in series [6] was “Not Active”.

Consider `COc1ccc(C(=O)N2CCCC2=O)cc1`, for which the IC50 entry in series [1], in series [2], in series [3], in series [4], in series [5] and in series [6] was “Not Active” throughout. Also, the Ki entry in series [6] is reported as “Not Active”.

Regarding `O=c1cnn([C@@H]2O[C@H](CO)[C@@H](O)[C@H]2O)c(=O)[nH]1` [6-AZAURIDINE], the IC50 result in series [1], in series [2], in series [3], in series [4], in series [5] and in series [6] was “Not Active” throughout. Further, in series [6], the Ki result is “Not Active”.

Consider `CC[C@H](C)[C@H]1O[C@]2(C=C[C@@H]1C)C[C@@H]1C[C@@H](C/C=C(\C)[C@@H](O[C@H]3C[C@H](OC)[C@@H](O[C@H]4C[C@H](OC)[C@@H](O)[C@H](C)O4)[C@H](C)O3)[C@@H](C)/C=C/C=C3\CO[C@@H]4[C@H](O)C(C)=C[C@@H](C(=O)O1)[C@]34O)O2.CO[C@H]1C[C@H](O[C@H]2[C@H](C)O[C@@H](O[C@@H]3/C(C)=C/C[C@@H]4C[C@@H](C[C@]5(C=C[C@H](C)[C@@H](C(C)C)O5)O4)OC(=O)[C@@H]4C=C(C)[C@@H](O)[C@H]5OC/C(=C\C=C\[C@@H]3C)[C@]54O)C[C@@H]2OC)O[C@@H](C)[C@@H]1O` [ABAMECTIN], for which the IC50 entry in series [1], in series [2], in series [3], in series [4], in series [5] and in series [6] was “Not Active” each time. In series [6], the Ki entry is listed as “Not Active”.

As for `NCCCC(O)(P(=O)(O)O)P(=O)(O)O` [ALENDRONIC ACID], the IC50 result in series [1], in series [2], in series [3], in series [4] and in series [5] was “Not Active” throughout.

Take `Cc1nnc2n1-c1ccc(Cl)cc1C(c1ccccc1)=NC2` [ALPRAZOLAM]: the IC50 result in series [1], in series [2], in series [3], in series [4], in series [5] and in series [6] was “Not Active” in each case. Further, the Ki result in series [6] is reported as “Not Active”.

`Cn1c(=O)c2[nH]cnc2n(C)c1=O.Cn1c(=O)c2[nH]cnc2n(C)c1=O.NCCN` [AMINOPHYLLINE]: the IC50 entry in series [1], in series [2], in series [3], in series [4], in series [5] and in series [6] was “Not Active” in each case. Also, in series [6], the Ki result is reported as “Not Active”.

Regarding `CCC1(CCC(C)C)C(=O)NC(=O)NC1=O` [AMOBARBITAL], the IC50 entry in series [1], in series [2], in series [3], in series [4], in series [5] and in series [6] was “Not Active” each time. Further, the Ki entry in series [6] is reported as “Not Active”.

On to `CC1(C)S[C@@H]2[C@H](NC(=O)[C@H](N)c3ccccc3)C(=O)N2[C@H]1C(=O)O` [AMPICILLIN], for which the IC50 result in series [1], in series [2], in series [3], in series [4] and in series [5] was “Not Active” in each case.

As for `COc1ccc(C2C(=O)c3ccccc3C2=O)cc1` [ANISINDIONE], the IC50 result in series [1], in series [2], in series [3], in series [4], in series [5] and in series [6] was “Not Active” in each case. In series [6], the Ki result was “Not Active”.

As to `O=C1O[C@H]([C@@H](O)CO)C(O)=C1O` [ASCORBIC ACID], the IC50 entry in series [1], in series [2], in series [3], in series [4], in series [5] and in series [6] was “Not Active” in each case. For the same molecule, the Ki entry in series [6] is given as “Not Active”.

`CN1[C@@H]2CC[C@H]1C[C@@H](OC(=O)C(CO)c1ccccc1)C2` (some centres undefined) [ATROPINE]: the IC50 entry in series [1], in series [2], in series [3], in series [4] and in series [5] was “Not Active” throughout.

As to `CC(C(=O)O)c1ccc2oc(-c3ccc(Cl)cc3)nc2c1` (centres undefined) [BENOXAPROFEN], the IC50 entry in series [1], in series [2], in series [3], in series [4], in series [5] and in series [6] was “Not Active” throughout. Further, the Ki result in series [6] was “Not Active”.

For `COc1cc(N)c(Cl)cc1C(=O)NC1CCN(CCCOc2ccc(F)cc2)CC1OC` (centres undefined) [CISAPRIDE], the half-inhibitory concentration (IC50) entry in series [1], in series [2], in series [3], in series [4] and in series [5] was “Not Active” each time.

Regarding `CC[C@H]1CN2CCc3cc(OC)c(OC)cc3[C@@H]2C[C@@H]1C[C@H]1NCCc2cc(OC)c(OC)cc21` [EMETINE], the IC50 result in series [1], in series [2], in series [3], in series [4] and in series [5] was “Not Active” throughout.

Turning to `CCN(CC)CCOCCC1=CCC2CC1C2(C)C` (centres undefined) [MYRTECAINE], the IC50 result in series [1], in series [2], in series [3], in series [4] and in series [5] was “Not Active” each time.

With `COc1cc2nc(N3CCN(C(=O)c4ccco4)CC3)nc(N)c2cc1OC` [PRAZOSIN], the IC50 entry in series [1], in series [2], in series [3], in series [4] and in series [5] was “Not Active” in each case.

Regarding `CCCNCC(O)COc1ccccc1C(=O)CCc1ccccc1` (centres undefined) [PROPAFENONE], the IC50 result in series [1], in series [2], in series [3], in series [4] and in series [5] was “Not Active” in each case.
